Laboratory results as given in PubChem BioAssay AID328 (DTP/NCI, 2004).
Values joined by “and” are separate entries in the source; they are usually repeats but may differ in a detail not shown here. Equal entries are not always repeated. Inconclusive results and toxic doses are left out.

Test system: BDF1 mice, P388 leukemia ip, median survival T/C
Experiment: NCI In Vivo Anticancer Drug Screen. Data for tumor model P388 Leukemia (intraperitoneal) in B6D2F1 (BDF1) mice
Conditions: endpoint: median survival time, higher = longer survival
Method in brief: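 Compound-treated tumour-bearing mice were compared with vehicle-treated controls. Survival was recorded, and the value is the treated-group measurement divided by the control-group measurement (T/C).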

[1] = dose: 50.0 mg/kg/injection, schedule: Q01DX009 (ip), vehicle: saline with Tween-80
[2] = dose: 100.0 mg/kg/injection, schedule: Q01DX009 (ip), vehicle: saline with Tween-80
[3] = dose: 200.0 mg/kg/injection, schedule: Q01DX009 (ip), vehicle: saline with Tween-80
[4] = dose: 400.0 mg/kg/injection, schedule: Q01DX009 (ip), vehicle: saline with Tween-80
[5] = dose: 25.0 mg/kg/injection, schedule: Q01DX009 (ip), vehicle: saline
[6] = dose: 50.0 mg/kg/injection, schedule: Q01DX009 (ip), vehicle: saline
[7] = dose: 100.0 mg/kg/injection, schedule: Q01DX009 (ip), vehicle: saline
[8] = dose: 12.5 mg/kg/injection, schedule: Q01DX009 (ip), vehicle: saline with Tween-80
[9] = dose: 25.0 mg/kg/injection, schedule: Q01DX009 (ip), vehicle: saline with Tween-80
[10] = dose: 12.5 mg/kg/injection, schedule: Q01DX009 (ip), vehicle: saline
[11] = dose: 100.0 mg/kg/injection, schedule: Q04DX003 (ip), vehicle: saline
[12] = dose: 200.0 mg/kg/injection, schedule: Q01DX009 (ip), vehicle: saline
[13] = dose: 100.0 mg/kg/injection, schedule: Q04DX003 (ip), vehicle: saline with Tween-80
[14] = dose: 25.0 mg/kg/injection, schedule: Q04DX003 (ip), vehicle: saline
[15] = dose: 400.0 mg/kg/injection, schedule: Q01DX009 (ip), vehicle: saline

In the case of `c1ccc(CNc2ncnc3[nH]ncc23)cc1`, the T/C (dose: 8.0 mg/kg/injection, schedule: Q01DX010 (ip), vehicle: saline) is reported as 86 % of control and 115 % of control, the T/C (dose: 16.0 mg/kg/injection, schedule: Q01DX010 (ip), vehicle: saline) is reported as 86 % of control and 100 % of control and the T/C (dose: 32.0 mg/kg/injection, schedule: Q01DX010 (ip), vehicle: saline) is reported as 95 % of control and 100 % of control. For the same compound, the T/C (dose: 64.0 mg/kg/injection, schedule: Q01DX010 (ip), vehicle: saline) was 100 % of control.

With `CNC(=S)ON1CCCCC1` the T/C [1] was 116 % of control, the T/C [2] was 114 % of control and the T/C [3] was 121 % of control.

With `COC1C(OC(=O)c2ccc(C)[nH]2)C(O)C(Oc2ccc3c(O)c(NC(=O)c4c[nH]c(C(=O)Nc5c(O)c6ccc(OC7OC(C)(C)C(OC)C(OC(=O)c8ccc(C)[nH]8)C7O)c(C)c6oc5=O)c4C)c(=O)oc3c2C)OC1(C)C` (stereo not drawn) the T/C [2] was 90 % of control, the T/C [3] was 109 % of control and the T/C [4] was 163 % of control.

In the case of `O=C(O)C1(O)C(Cl)(Cl)C(Cl)=C(Cl)C1(Cl)Cl`, the T/C [5] is reported as 118 % of control, the T/C [6] is reported as 122 % of control and the T/C [7] is reported as 118 % of control.

`CN(C)c1ccc(C2NC(=S)NC3=C2CCCC3)cc1` (stereo not drawn) was tested, and the T/C [8] was 108 % of control, the T/C [9] was 111 % of control and the T/C [1] was 88 % of control and 109 % of control.

For `c1cc[c]([Sn]([O][Sn]([c]2ccccc2)([c]2ccccc2)[c]2ccccc2)([c]2ccccc2)[c]2ccccc2)cc1`, the T/C (dose: 25.0 mg/kg/injection, schedule: Q04DX003 (ip), vehicle: saline with Tween-80) was 95 % of control.

With `CCN(CC)CCOc1ccc(C2=C(c3ccccc3)CCc3cc(OC)ccc32)cc1` the T/C [8] was 90 % of control, the T/C [9] was 90 % of control and the T/C [1] was 95 % of control and 118 % of control.

With `O=c1cc(-c2cccnc2)oc2c1ccc1ccccc12` the T/C (dose: 12.5 mg/kg/injection, schedule: Q01DX009 (ip), vehicle: other) was 89 % of control, the T/C (dose: 25.0 mg/kg/injection, schedule: Q01DX009 (ip), vehicle: other) was 91 % of control and the T/C (dose: 50.0 mg/kg/injection, schedule: Q01DX009 (ip), vehicle: other) was 95 % of control. The T/C (dose: 100.0 mg/kg/injection, schedule: Q01DX009 (ip), vehicle: other) was 91 % of control and the T/C (dose: 200.0 mg/kg/injection, schedule: Q01DX009 (ip), vehicle: other) was 87 % of control.

For `CC(NC(=O)C(C)NC(=O)C(N)CCS(C)(=O)=NP(=O)(O)O)C(=O)O` (stereo not drawn), the T/C [10] was 101 % of control and the T/C [5] was 110 % of control.

`C/C=C(\C)C(=O)OCC1CC[N+](C)([O-])C1` (stereo not drawn) was tested, and the T/C (dose: 50.0 mg/kg/injection, schedule: Q01DX009 (ip), vehicle: water) was 103 % of control, the T/C (dose: 100.0 mg/kg/injection, schedule: Q01DX009 (ip), vehicle: water) was 100 % of control and the T/C (dose: 200.0 mg/kg/injection, schedule: Q01DX009 (ip), vehicle: water) was 103 % of control. The T/C (dose: 400.0 mg/kg/injection, schedule: Q01DX009 (ip), vehicle: water) was 119 % of control.

In the case of `CC(C)(CO)COC(=O)NC1=C(N2CC2)C(=O)C(NC(=O)OCC(C)(C)CO)=C(N2CC2)C1=O`, the T/C (dose: 0.75 mg/kg/injection, schedule: Q01DX009 (ip), vehicle: water) is reported as 151 % of control and 157 % of control, the T/C (dose: 1.5 mg/kg/injection, schedule: Q01DX009 (ip), vehicle: water) is reported as 159 % of control and 178 % of control and the T/C (dose: 3.0 mg/kg/injection, schedule: Q01DX009 (ip), vehicle: water) is reported as 181 % of control and 200 % of control. For the same compound, the T/C (dose: 6.0 mg/kg/injection, schedule: Q01DX009 (ip), vehicle: water) was 231 % of control and 205 % of control and the T/C (dose: 12.0 mg/kg/injection, schedule: Q01DX009 (ip), vehicle: water) was 232 % of control and 312 % of control.

For `NC(=O)C(O)C(Br)(Br)Br` (stereo not drawn), the T/C [7] was 116 % of control, the T/C [11] was 95 % of control and the T/C [12] was 108 % of control. For the same compound, the T/C (dose: 200.0 mg/kg/injection, schedule: Q04DX003 (ip), vehicle: saline) was 104 % of control and the T/C (dose: 400.0 mg/kg/injection, schedule: Q04DX003 (ip), vehicle: saline) was 100 % of control.

With `COc1ccc(Cc2c3cc(OC)c(OC)cc3cc[n+]2C)cc1OC` the T/C [9] was 90 % of control, the T/C [1] was 100 % of control and the T/C [13] was 108 % of control.

With `CC1(C)OC(COCCOCCOCCCO)C(COCCOCCOCCCO)O1` (stereo not drawn) the T/C (dose: 100.0 mg/kg/injection, schedule: Q01DX001 (ip), vehicle: saline) was 112 % of control, the T/C (dose: 100.0 mg/kg/injection, schedule: Q01DX001 (ip), vehicle: suspension in saline) was 100 % of control and the T/C (dose: 200.0 mg/kg/injection, schedule: Q01DX001 (ip), vehicle: saline) was 111 % of control. The T/C (dose: 200.0 mg/kg/injection, schedule: Q01DX001 (ip), vehicle: suspension in saline) was 98 % of control, the T/C (dose: 400.0 mg/kg/injection, schedule: Q01DX001 (ip), vehicle: suspension in saline) was 120 % of control and the T/C (dose: 800.0 mg/kg/injection, schedule: Q01DX001 (ip), vehicle: suspension in saline) was 100 % of control.

In the case of `CC/C(=C\c1ccc(Cl)cc1)[N+](=O)[O-]`, the T/C [10] is reported as 97 % of control, the T/C [5] is reported as 99 % of control and the T/C [14] is reported as 87 % of control. For the same compound, the T/C [6] was 99 % of control, the T/C (dose: 50.0 mg/kg/injection, schedule: Q04DX003 (ip), vehicle: saline) was 104 % of control and the T/C [11] was 104 % of control and 109 % of control.

In the case of `CN(C)c1ccc(/C=N/NC(N)=S)nc1`, the T/C (dose: 44.0 mg/kg/injection, schedule: Q04DX003 (ip), vehicle: saline with Tween-80) is reported as 159 % of control, the T/C (dose: 66.0 mg/kg/injection, schedule: Q04DX003 (ip), vehicle: saline with Tween-80) is reported as 150 % of control and 163 % of control and the T/C [13] is reported as 177 % of control. For the same compound, the T/C (dose: 150.0 mg/kg/injection, schedule: Q04DX003 (ip), vehicle: saline with Tween-80) was 213 % of control.

`Cc1cccc(NC(=O)C2CCC(C)(C(=O)O)C2(C)C)c1` (stereo not drawn) was tested, and the T/C (dose: 50.0 mg/kg/injection, schedule: Q04DX003 (ip), vehicle: saline with Tween-80) was 100 % of control, the T/C [13] was 95 % of control and the T/C (dose: 200.0 mg/kg/injection, schedule: Q04DX003 (ip), vehicle: saline with Tween-80) was 104 % of control.

In the case of `CC(=O)CC(=O)OCc1ccccc1`, the T/C [2] is reported as 100 % of control, the T/C [3] is reported as 118 % of control and the T/C [4] is reported as 100 % of control.

With `COc1ccc(C(=O)c2cc(OC)c(OC)c(OC)c2)cc1OC` the T/C (dose: 100.0 mg/kg/injection, schedule: Q01DX009 (ip), vehicle: Klucel (hydroxypropylcellulose) (HPC)) was 92 % of control, the T/C [7] was 109 % of control and the T/C (dose: 100.0 mg/kg/injection, schedule: Q04DX003 (ip), vehicle: Klucel (hydroxypropylcellulose) (HPC)) was 95 % of control. The T/C (dose: 200.0 mg/kg/injection, schedule: Q01DX009 (ip), vehicle: Klucel (hydroxypropylcellulose) (HPC)) was 107 % of control, the T/C [12] was 113 % of control and the T/C (dose: 200.0 mg/kg/injection, schedule: Q04DX003 (ip), vehicle: Klucel (hydroxypropylcellulose) (HPC)) was 104 % of control. For the same compound, the T/C (dose: 400.0 mg/kg/injection, schedule: Q01DX009 (ip), vehicle: Klucel (hydroxypropylcellulose) (HPC)) was 107 % of control, the T/C [15] was 122 % of control and the T/C (dose: 400.0 mg/kg/injection, schedule: Q04DX003 (ip), vehicle: Klucel (hydroxypropylcellulose) (HPC)) was 95 % of control.

`CCCCCCCCCCCCCCSC1CC(=O)OC1=O` (stereo not drawn) was tested, and the T/C [1] was 98 % of control, the T/C [2] was 91 % of control and the T/C [3] was 96 % of control.

`COC(=O)CCCCCCCCC(C)c1ccccc1` (stereo not drawn) was tested, and the T/C (dose: 264.0 mg/kg/injection, schedule: Q01DX009 (ip), vehicle: saline) was 110 % of control and the T/C [15] was 110 % of control.

`CC(C)n1c(=S)[nH]c2ccccc2c1=O` was tested, and the T/C (dose: 100.0 mg/kg/injection, schedule: Q01DX001 (ip), vehicle: Klucel (hydroxypropylcellulose) (HPC)) was 100 % of control, the T/C (dose: 200.0 mg/kg/injection, schedule: Q01DX001 (ip), vehicle: Klucel (hydroxypropylcellulose) (HPC)) was 100 % of control and the T/C (dose: 400.0 mg/kg/injection, schedule: Q01DX001 (ip), vehicle: Klucel (hydroxypropylcellulose) (HPC)) was 100 % of control.

For `CC(=O)OC1C(C=C(C)C)OC2CC3(C)C4=C(CCC3(C)C2C1C)C1(C)CCC(O)C(C)(C)C1CC4` (stereo not drawn), the T/C (dose: 50.0 mg/kg/injection, schedule: Q01DX010 (sc), vehicle: steriod suspending solution) was 90 % of control, the T/C (dose: 100.0 mg/kg/injection, schedule: Q01DX010 (sc), vehicle: steriod suspending solution) was 90 % of control and the T/C (dose: 200.0 mg/kg/injection, schedule: Q01DX010 (sc), vehicle: steriod suspending solution) was 90 % of control. The T/C (dose: 400.0 mg/kg/injection, schedule: Q01DX010 (sc), vehicle: steriod suspending solution) was 86 % of control.

In the case of `NC(=O)c1cn(C2OC(CO)C(O)C2O)c2ncn3ccnc3c12` (stereo not drawn), the T/C (dose: 6.25 mg/kg/injection, schedule: Q04DX003 (ip), vehicle: saline) is reported as 118 % of control, the T/C [14] is reported as 115 % of control and the T/C [11] is reported as 118 % of control.

For `O=C(OCCO)c1ccccc1O`, the T/C [7] was 107 % of control, the T/C [12] was 115 % of control and the T/C [15] was 100 % of control.
